Source: ChEMBL document CHEMBL1201862, “PubChem BioAssay data set” (2004)
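Cells were grown in 96-well plates and exposed to each compound for 48 hours at five concentrations; endpoints were interpolated linearly between bracketing concentrations, or set to the highest concentration if not reached. GI50 is the concentration that inhibits growth by half.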 The source made the active and inactive calls. Cut-off read from the data, not from the text of the source: active = GI50 up to about 1.1 µM and inactive = higher.

How the values were obtained:
Experiment in all cases: NCI anticancer screen, dose series, 48 h
BT-549 = tested on: BT-549
DU-145 = tested on: DU-145
IGROV-1 = tested on: IGROV-1
K562 = tested on: K562
LOX IMVI = tested on: LOX IMVI
Malme-3M = tested on: Malme-3M
OVCAR-3 = tested on: OVCAR-3
OVCAR-4 = tested on: OVCAR-4
OVCAR-8 = tested on: OVCAR-8
PC-3 = tested on: PC-3
RPMI-8226 = tested on: RPMI-8226
RXF 393 = tested on: RXF 393
SF-295 = tested on: SF-295
SK-MEL-28 = tested on: SK-MEL-28
SN12C = tested on: SN12C
SNB-19 = tested on: SNB-19
U-251 = tested on: U-251
UACC-62 = tested on: UACC-62
UO-31 = tested on: UO-31
HCC 2998 = tested on: HCC 2998

Row | SMILES | GI50 (BT-549) | GI50 (DU-145) | GI50 (IGROV-1) | GI50 (K562) | GI50 (LOX IMVI) | GI50 (Malme-3M) | GI50 (OVCAR-3) | GI50 (OVCAR-4) | GI50 (OVCAR-8) | GI50 (PC-3) | GI50 (RPMI-8226) | GI50 (RXF 393) | GI50 (SF-295) | GI50 (SK-MEL-28) | GI50 (SN12C) | GI50 (SNB-19) | GI50 (U-251) | GI50 (UACC-62) | GI50 (UO-31) | GI50 (HCC 2998)
1 | CC(NC(=O)C(N)CC(=O)O)NC(=O)N1CCOCC1 (stereo not drawn) | > 100 µM (inactive) | > 100 µM (inactive) | > 100 µM (inactive) | > 100 µM (inactive) | > 100 µM (inactive) | > 100 µM (inactive) | > 100 µM (inactive) | > 100 µM (inactive) | > 100 µM (inactive) | > 100 µM (inactive) | > 100 µM (inactive) | > 100 µM (inactive) | > 100 µM (inactive) | > 100 µM (inactive) | > 100 µM (inactive) | > 100 µM (inactive) | > 100 µM (inactive) | 19.1 µM (inactive) | > 100 µM (inactive) | –
2 | COc1cc2nc(-c3cccs3)oc(=O)c2cc1OC | 42 µM (inactive) | > 100 µM (inactive) | > 100 µM (inactive) | > 100 µM (inactive) | > 100 µM (inactive) | > 100 µM (inactive) | > 100 µM (inactive) | > 100 µM (inactive) | 53.1 µM (inactive) | > 100 µM (inactive) | > 100 µM (inactive) | > 100 µM (inactive) | > 100 µM (inactive) | > 100 µM (inactive) | > 100 µM (inactive) | 47.3 µM (inactive) | 38.5 µM (inactive) | > 100 µM (inactive) | > 100 µM (inactive) | –
3 | CP(=O)(O)C(N)c1ccccc1 (stereo not drawn) | > 100 µM (inactive) | > 100 µM (inactive) | > 100 µM (inactive) | > 100 µM (inactive) | > 100 µM (inactive) | > 100 µM (inactive) | > 100 µM (inactive) | > 100 µM (inactive) | > 100 µM (inactive) | > 100 µM (inactive) | > 100 µM (inactive) | – | > 100 µM (inactive) | > 100 µM (inactive) | > 100 µM (inactive) | > 100 µM (inactive) | > 100 µM (inactive) | > 100 µM (inactive) | > 100 µM (inactive) | –
4 | CCCCCCCCCCCCCCCCOCC(Cl)COP(=O)(O)OP(=O)(O)OCC1OC(n2cnc3c(N)ncnc32)C(O)C1O (stereo not drawn) | > 100 µM (inactive) | – | > 100 µM (inactive) | > 100 µM (inactive) | 75.9 µM (inactive) | > 100 µM (inactive) | > 100 µM (inactive) | > 100 µM (inactive) | > 100 µM (inactive) | 29.9 µM (inactive) | > 100 µM (inactive) | > 100 µM (inactive) | > 100 µM (inactive) | > 100 µM (inactive) | > 100 µM (inactive) | > 100 µM (inactive) | > 100 µM (inactive) | > 100 µM (inactive) | 61 µM (inactive) | > 100 µM (inactive)
5 | O=C(CCCN1CCC(O)(c2ccc(Cl)cc2)CC1)c1ccc(F)cc1 [HALOPERIDOL] | 31 µM (inactive) | 85.1 µM (inactive) | 57.3 µM (inactive) | > 100 µM (inactive) | 18 µM (inactive) | 19.6 µM (inactive) | 18.3 µM (inactive) | 85.7 µM (inactive) | 32.7 µM (inactive) | 70 µM (inactive) | 25.1 µM (inactive) | – | 15.6 µM (inactive) | 18 µM (inactive) | 37.7 µM (inactive) | > 100 µM (inactive) | 20.7 µM (inactive) | 2.31 µM (inactive) | 15.7 µM (inactive) | –
6 | CCOC(=O)C(C/C=C/CO)N(C)C(=O)OC(C)(C)C (stereo not drawn) | > 100 µM (inactive) | > 100 µM (inactive) | > 100 µM (inactive) | 83.9 µM (inactive) | > 100 µM (inactive) | – | > 100 µM (inactive) | > 100 µM (inactive) | > 100 µM (inactive) | > 100 µM (inactive) | > 100 µM (inactive) | > 100 µM (inactive) | > 100 µM (inactive) | > 100 µM (inactive) | > 100 µM (inactive) | > 100 µM (inactive) | > 100 µM (inactive) | > 100 µM (inactive) | > 100 µM (inactive) | –
7 | CCCCC(=O)/C=c1/cc(C)[nH]c2cccc3cnn1c32 | > 100 µM (inactive) | > 100 µM (inactive) | > 100 µM (inactive) | – | > 100 µM (inactive) | > 100 µM (inactive) | > 100 µM (inactive) | > 100 µM (inactive) | > 100 µM (inactive) | 49.1 µM (inactive) | 61.9 µM (inactive) | – | > 100 µM (inactive) | > 100 µM (inactive) | > 100 µM (inactive) | > 100 µM (inactive) | > 100 µM (inactive) | > 100 µM (inactive) | > 100 µM (inactive) | –
8 | O=C(O)Cc1ccc(Nc2nc3ccccc3nc2C(=O)O)cc1 | > 100 µM (inactive) | > 100 µM (inactive) | > 100 µM (inactive) | – | > 100 µM (inactive) | > 100 µM (inactive) | > 100 µM (inactive) | > 100 µM (inactive) | > 100 µM (inactive) | > 100 µM (inactive) | – | > 100 µM (inactive) | > 100 µM (inactive) | > 100 µM (inactive) | > 100 µM (inactive) | > 100 µM (inactive) | > 100 µM (inactive) | > 100 µM (inactive) | > 100 µM (inactive) | –
9 | COc1ccc(N(c2ccc(C#N)cc2)c2ccc(C#N)cc2)cc1 | > 100 µM (inactive) | > 100 µM (inactive) | 23.7 µM (inactive) | – | 69.8 µM (inactive) | – | 82.4 µM (inactive) | > 100 µM (inactive) | > 100 µM (inactive) | > 100 µM (inactive) | – | – | > 100 µM (inactive) | > 100 µM (inactive) | > 100 µM (inactive) | > 100 µM (inactive) | > 100 µM (inactive) | > 100 µM (inactive) | 22.2 µM (inactive) | –
10 | Cc1ccc(S(=O)(=O)NC(=O)NC(CCC(N)=O)C(=O)O)cc1 (stereo not drawn) | > 100 µM (inactive) | > 100 µM (inactive) | > 100 µM (inactive) | > 100 µM (inactive) | > 100 µM (inactive) | > 100 µM (inactive) | – | > 100 µM (inactive) | > 100 µM (inactive) | > 100 µM (inactive) | > 100 µM (inactive) | > 100 µM (inactive) | > 100 µM (inactive) | > 100 µM (inactive) | > 100 µM (inactive) | > 100 µM (inactive) | > 100 µM (inactive) | > 100 µM (inactive) | > 100 µM (inactive) | –
11 | CC(C)(C)c1ccc(C(C)(C)C)c(N2C(=O)C3ON=C(c4ccc([N+](=O)[O-])cc4)C3C2=O)c1 (stereo not drawn) | > 25 µM (inactive) | 10.8 µM (inactive) | 4.5 µM (inactive) | 11 µM (inactive) | 9.04 µM (inactive) | > 25 µM (inactive) | 10.5 µM (inactive) | 8.57 µM (inactive) | 10.4 µM (inactive) | – | 10 µM (inactive) | 15.1 µM (inactive) | 12.9 µM (inactive) | > 25 µM (inactive) | > 25 µM (inactive) | > 25 µM (inactive) | – | 17.8 µM (inactive) | 22.1 µM (inactive) | 5.02 µM (inactive)
12 | C/C(=N\n1c(Cc2ccccc2)n[nH]c1=O)c1ccccc1 | > 100 µM (inactive) | > 100 µM (inactive) | > 100 µM (inactive) | > 100 µM (inactive) | > 100 µM (inactive) | > 100 µM (inactive) | – | > 100 µM (inactive) | > 100 µM (inactive) | > 100 µM (inactive) | > 100 µM (inactive) | > 100 µM (inactive) | – | > 100 µM (inactive) | > 100 µM (inactive) | > 100 µM (inactive) | > 100 µM (inactive) | > 100 µM (inactive) | > 100 µM (inactive) | –
13 | COc1ccc2c3c1O[C@H]1[C@@H](O)CC[C@@]4(O)[C@@H](C2)N(C)CC[C@]314 | > 100 µM (inactive) | > 100 µM (inactive) | > 100 µM (inactive) | > 100 µM (inactive) | > 100 µM (inactive) | > 100 µM (inactive) | > 100 µM (inactive) | > 100 µM (inactive) | > 100 µM (inactive) | > 100 µM (inactive) | > 100 µM (inactive) | – | > 100 µM (inactive) | > 100 µM (inactive) | > 100 µM (inactive) | > 100 µM (inactive) | > 100 µM (inactive) | > 100 µM (inactive) | > 100 µM (inactive) | –
14 | CC1(C)CCC2=C(O1)c1ccccc1C(=O)C2=O [LAPACHONE] | 0.721 µM (active) | 0.64 µM (active) | – | 0.245 µM (active) | – | 0.427 µM (active) | 0.234 µM (active) | 0.684 µM (active) | 0.398 µM (active) | 0.847 µM (active) | 0.284 µM (active) | 1.41 µM (inactive) | 0.7 µM (active) | – | 0.51 µM (active) | – | 0.337 µM (active) | 0.475 µM (active) | – | –
15 | C/C(=C\CO)CC/C=C(\C)CNc1ccc([N+](=O)[O-])cc1 | 10.1 µM (inactive) | 50.4 µM (inactive) | 28.8 µM (inactive) | 15 µM (inactive) | 22.3 µM (inactive) | 8.2 µM (inactive) | 17.4 µM (inactive) | 2.98 µM (inactive) | 30.8 µM (inactive) | 18 µM (inactive) | – | > 100 µM (inactive) | 32.5 µM (inactive) | 28.4 µM (inactive) | 60.8 µM (inactive) | 40.3 µM (inactive) | 23.7 µM (inactive) | 27.5 µM (inactive) | 7.98 µM (inactive) | –
